Laboratory results from ChEMBL document CHEMBL3507680, “University of Dundee, Gates Library screen for HepG2 cell viability”.

test: Human HepG2 cell viability assay in 384 well format; type: toxicity, cell-based; set-up: dose 125 nL, time 70.5 hour; cytotoxicity at 70.5 h: concentration not given beside the values; details: HepG2 cells, read-out: Inhibition

Row | Structure (SMILES) | cytotoxicity at 70.5 h [%]
1 | Cc1nn(C)c2cnn(CC(=O)NCc3cccs3)c12 | -8.64
2 | CCN1CCCC(O)(CN(C)Cc2ccccc2F)C1 (stereo not drawn) | -9.61
3 | Cc1cc(C)n(CCC(=O)N2CCC(c3nc(C)no3)CC2)n1 | -12.5
4 | Cc1noc(C2CCCN(C(=O)c3cc(-c4ccccc4)on3)C2)n1 (stereo not drawn) | -20.7
5 | Cc1nn(C)c2cn(C(C)C(=O)NCc3cccc(F)c3)nc12 (stereo not drawn) | -3
6 | Cc1cccc2c1ccn2CC(=O)O | 6.19
7 | CC(O)c1cccc(Nc2nc(NCCO)c3ccccc3n2)c1 (stereo not drawn) | -5.65
8 | Cc1cc2[nH]c(O)nc2cc1NCc1ccc(F)cc1 | -10.2
9 | O=c1c2cnc(N3CCCCC3)nc2ccn1Cc1ccco1 | -7.45
10 | Cc1nc(N2CCCC2)ncc1-c1cc(O)nc(NCC2CCCO2)n1 (stereo not drawn) | -5.1
11 | Cc1nn(C)c2cn(CC(=O)N3CCN(c4ccccc4)CC3)nc12 | 7.34
12 | CCn1nccc1CNC(=O)Cn1cc2c(n1)c(C)nn2C(C)C | -9.07
13 | CCN1CCCC(O)(CNCc2ccccc2F)C1 (stereo not drawn) | 12.4
14 | CC(c1ccccc1)N1Cc2nc(N(C)C)ncc2C1=O (stereo not drawn) | 49
15 | CN1CCC(N2Cc3nc(N)ncc3C2=O)CC1 | -11.6
16 | CN1CCN(c2nsc(-c3ccccc3)c2C#N)CC1 | -2.35
17 | CCn1nc(C)c(CNC(=O)c2nnc3ccccc3n2)c1C | 0.73
18 | O=C(NCCn1cccn1)c1nnc2ccccc2n1 | 19.4
19 | N#Cc1c(N2CCCCC2)nsc1-c1cccnc1 | 25
20 | CN1CCN(C(=O)c2nnc3ccc(Cl)cc3n2)CC1 | -10.9
21 | Cc1ccc2nnc(C(=O)NCC3CCCC3)nc2c1 | -0.847
22 | CC(C)CN1Cc2nc(N3CCCC(C)C3)ncc2C1=O (stereo not drawn) | -9.32
23 | CNc1ncc2c(n1)CN(CCc1ccc(Cl)cc1)C2=O | -5.88
24 | CCN1CCN(c2ncc3c(n2)CN(c2cnn(CC)c2)C3=O)CC1 | -6.35

Row | Structure (SMILES) | cytotoxicity at 70.5 h [%]
25 | CCCN1Cc2nc(N3CCCC3)ncc2C1=O | -5.27
26 | COC(=O)C1CCN(C(=O)c2nnc3ccc(C)cc3n2)CC1 | -6.57
27 | Cc1ccc2nnc(C(=O)NCCCn3cccn3)nc2c1 | 6.08
28 | Cc1nn(C)c(C)c1CN(C)C(=O)c1cc(NC(=O)C2CC2)n(C)n1 | -8.63
29 | Cn1nc(C(=O)NC2CC(C)(C)NC(C)(C)C2)cc1NC(=O)C1CC1 | -8.61
30 | Cc1nc2c(N3CCN(CCO)CC3)nc(N)nc2n1C | 0.799
31 | Cc1nc2c(N(C)Cc3ccnn3C)nc(N)nc2n1C | 0.962
32 | CCn1nc(C)c(NC(=O)CCn2ncc3cc(C)ccc32)c1C | 13.9
33 | CN(C)CCNC(=O)CCn1ncc2c(Cl)cccc21 | -4.46
34 | CCn1cc(CNC(=O)CCn2ncc3c(Cl)cccc32)cn1 | 17.5
35 | Cc1cc(O)nc(C2CN(CC3(O)CCOCC3)CCO2)n1 (stereo not drawn) | 8.89
36 | CC(=O)N[C@@H]1CN(C(=O)c2cnc3ccccc3c2)C[C@H]1O | 10.7
37 | O=C1CO[C@H]2CN(Cc3cccc(F)c3F)C[C@@H]2N1C1CCOCC1 | 41.9
38 | NC(=O)CN1CCC2(CC1)C[C@@H](O)[C@H](c1ccccc1)NC2=O | -0.832
39 | O=C(O)C1CN(c2cccc(Cl)c2)CCO1 (stereo not drawn) | -4.2
40 | Cc1cn[nH]c1C1COCCN1S(=O)(=O)c1cn[nH]c1 (stereo not drawn) | -0.517
41 | COc1cccc(CN2CCOC(c3cnccn3)C2)c1F (stereo not drawn) | -8.48
42 | Cc1noc(C)c1C(=O)N1CCCCC1c1cc(C)n2ccnc2n1 (stereo not drawn) | -10.1
43 | CCCn1nccc1-c1cc(C2CCN(S(C)(=O)=O)CC2)nc(C)n1 | -6.18
44 | Cc1cc(C2CCCN(S(=O)(=O)c3cn[nH]c3)C2)ccn1 (stereo not drawn) | -7.27
45 | COCC(=O)N1CCCC1c1cccc(Nc2ncc(C)s2)n1 (stereo not drawn) | 0.0728
46 | CN1CCOC(C)(C(=O)N2CCSCC2)C1 (stereo not drawn) | -4.76
47 | CNC(=O)C1CN(C)CCN(CCCOc2ccccc2F)C1 (stereo not drawn) | -3.84
48 | O=C(CCN1CCc2ccccc21)N1C[C@@H](O)[C@H](N2CCCC2)C1 | -7.06

Row | Structure (SMILES) | cytotoxicity at 70.5 h [%]
49 | CC(=O)N1CCc2nnc(C3CCCN3CC3CCCCC3)n2CC1 (stereo not drawn) | -6.06
50 | O=C(NCCNC1CCCCC1)c1cccs1 | -6.1
51 | Cc1cc(C(=O)NCc2ccc(F)cc2)nc(C2CCCN2C)n1 (stereo not drawn) | -2.73
52 | CN(C)c1cc(C2CCCN2C(=O)c2ccc(=O)n(C)c2)ccn1 (stereo not drawn) | -7.99
53 | COc1ccc(-c2cnc(N(C)C)nc2C2CN(C(C)=O)CCO2)cc1 (stereo not drawn) | -11.5
54 | Fc1ccc(-c2nccnc2C2CCCNC2)cc1 (stereo not drawn) | -3.79
55 | Fc1cccc(-c2nccnc2C2CCCNC2)c1 (stereo not drawn) | -11.7
56 | Cc1nccc(C2CCCCN2Cc2cccc(F)c2)n1 (stereo not drawn) | -12.9
57 | CS(=O)(=O)N1CC(c2n[nH]c3ncccc23)C1 | -1.49
58 | CS(=O)(=O)c1cn[nH]c1C1CCCN(C(=O)CN2CCOCC2)C1 (stereo not drawn) | -5.31
59 | CN(C)c1nccc(C2CCCN(C(=O)CO)C2)n1 (stereo not drawn) | -7.31
60 | COc1ccc(C(=O)N2C[C@@H](c3ccccc3)[C@@H]3NCCCC[C@@H]32)cc1 | -8.54
61 | c1cc(N2CCOCC(Cc3ccc4[nH]ccc4c3)C2)ncn1 (stereo not drawn) | -8.81
62 | Cc1cc(N2CCOCC(Cc3ccc4[nH]ccc4c3)C2)ncn1 (stereo not drawn) | -9.7
63 | Cc1sc2c(C3CCCN(C)C3)nc(C)n2c1C (stereo not drawn) | 24.3
64 | CC(=O)N1CC(c2ccnc(Nc3ccc(C)cn3)n2)C1 | -4.62
65 | Cc1cc(C2CCN(S(=O)(=O)c3cn(C)cn3)CC2)ccn1 | -9.79
66 | COc1cccc(-c2cnc(C3CCNCC3)cn2)c1 | -4.54
67 | Cn1nccc1C(=O)N1CCOC(Cc2ccc(Cl)cc2)C1 (stereo not drawn) | 0.563
68 | Cc1cncc(C2CCN(C(=O)CCc3ccnn3C)CC2)n1 | 23.6
69 | Cc1[nH]c2ccc(C(=O)N3C[C@@H](O)[C@H](N4CCOCC4)C3)cc2c1C | -1.3
70 | CCN(Cc1ccncc1)CC1(O)CCN(C(=O)c2cccc(C)c2)C1 (stereo not drawn) | -4.75
71 | Nc1nccnc1C1CN(C(=O)c2ccnnc2)CCO1 (stereo not drawn) | -6.55
72 | O=C(N[C@@H]1CCC[C@@H](N2CCCC2)[C@@H]1O)c1cnn2cccnc12 | -1.75

Row | Structure (SMILES) | cytotoxicity at 70.5 h [%]
73 | O=C(N[C@@H]1CC[C@@H](N2CCOCC2)[C@@H]1O)c1cnn2cccnc12 | 21.8
74 | Cc1nc2ccccn2c1CC(=O)N[C@@H]1CC[C@@H](N2CCCC2)[C@@H]1O | -5.16
75 | O=C(C1CCN(c2cccnn2)C1)N1CCOCC1 (stereo not drawn) | 1.06
76 | CNC(=O)c1cn[nH]c1C1(C)CCCN(Cc2ccccc2OC)C1 (stereo not drawn) | 3.23
77 | CCCc1ncc(CNC2(c3ccc(Cl)cc3)CCC2)cn1 | -4.55
78 | CC(C)c1ncc(CNC2(c3ccc(Cl)cc3)CC2)cn1 | -1.4
79 | COCCc1ncc(CNC2(c3ccc(Cl)cc3)CC2)cn1 | 0.0528
80 | c1ccc(-c2cc(CNCCN3CCCC3)c3nnnn3c2)cc1 | -3.47
81 | COc1ccc(CC(=O)N2CCCC2c2nc(C)c(C)c(O)n2)cc1 (stereo not drawn) | -2.14
82 | Cc1nc(C2CCCN2C(=O)Cc2cccc(F)c2)nc(O)c1C (stereo not drawn) | 21.4
83 | O=C(c1ccc(F)cc1)N(CCCO)S(=O)(=O)c1cccs1 | -16.3
84 | Cc1ccc(N2CCC(NC(C)c3ccc(C)o3)CC2)nc1 (stereo not drawn) | -4.68
85 | Cn1cc(C2CCCN2C(=O)CCCc2nc3ccccc3[nH]2)cn1 (stereo not drawn) | 4.56
86 | O=C(COCC1CC1)N1CCCC1c1nc(-c2ccccc2F)c[nH]1 (stereo not drawn) | 2.15
87 | Cc1noc(CNc2ccc(CC(=O)N3CCSCC3)cc2)n1 | -5.52
88 | CCc1noc(CNc2ccc(CC(=O)N3CCSCC3)cc2)n1 | -6.52
89 | Cn1c(CS(=O)(=O)Cc2ccc(Cl)cc2)cc(=O)n(C)c1=O | -6.35
90 | Cn1c(CS(=O)(=O)c2ccc(Cl)cc2)cc(=O)n(C)c1=O | -4.14
91 | COc1ccc(C(NC(=O)NCc2nnc3n2CCC3)C2CC2)cc1 (stereo not drawn) | 14.3
92 | CN(C)C(=O)c1cccc(NC(=O)c2cnn(C)c2)c1 | -4.77
93 | Cc1ccccc1CC(=O)NCCNc1nccc(C(F)(F)F)n1 | -8.29
94 | COc1cccc(C(CO)NC(=O)NC(C)C)c1 (stereo not drawn) | 11.8
95 | CC(Cc1c(F)cccc1F)NC(=O)NCc1ncnn1C (stereo not drawn) | -2.54
96 | CC(CCc1cccc(F)c1)NC(=O)NCc1ncnn1C (stereo not drawn) | -5.76

Row | Structure (SMILES) | cytotoxicity at 70.5 h [%]
97 | CC(=O)N1CCCC(c2nc(-c3ccccc3)c[nH]2)C1 (stereo not drawn) | -3.53
98 | CC(C)(C)Oc1ccncc1NCc1cscn1 | -3.05
99 | COc1cccc(C(CO)NC(=O)Cc2ccc(F)c(Br)c2)c1 (stereo not drawn) | -3.64
100 | CN(C)C(=O)c1cccc(Nc2cnn(C)c2)c1 | -3.59
101 | CNC(=O)c1cccc(Nc2cnn(C)c2)c1 | -1.28
102 | CCOCCCC(=O)N1CCCC1c1nc(-c2ccccc2F)c[nH]1 (stereo not drawn) | -2.77
103 | Cn1cc(Nc2cccc(C(=O)N(CC(N)=O)C3CCCC3)c2)cn1 | -3.71
104 | CC(NCCCn1ccnc1)c1ccc(N2CCOC2=O)cc1 (stereo not drawn) | 16.7
105 | Cc1ccccc1C(C)NC(=O)CN1CCN(Cc2cccs2)CC1 (stereo not drawn) | 0.186
106 | O=C(CCC1CCCCC1)NCc1nnc2ccccn12 | -1.08
107 | CN(C)Cc1ccccc1NC(=O)c1ccc(C#N)cc1 | -7.54
108 | CN(Cc1nnc2ccccn12)C(=O)CCNC(=O)C(C)(C)C | 17.1
109 | CN(c1ncccc1C#N)C1CCN(Cc2ccncc2)CC1 | -3.31
110 | Cc1nc(-c2ccccc2)sc1C(=O)N(C1CC1)C1CC(=O)NC1=O (stereo not drawn) | -8.02
111 | Cc1cnc(NS(=O)(=O)c2cccc(C#N)c2)s1 | 20.1
112 | Cc1cc(C(=O)N2CCc3nc(C4CCCCN4)ncc3C2)cs1 (stereo not drawn) | -7.25
113 | Fc1ccccc1OCCc1cc(C2CNCCO2)n[nH]1 (stereo not drawn) | -5.54
114 | CC(C)OCCCN(Cc1ccncc1)Cc1cc(F)ccc1F | -4.35
115 | CCOc1ccc2ccccc2c1CNCC1CCS(=O)(=O)C1 (stereo not drawn) | -3.67
116 | COc1ccccc1NCc1cscn1 | -1.66
117 | Cc1ccc(CN(CCCN2CCOCC2)Cc2cncn2C)o1 | -4.09
118 | Cc1nc(C2CCN(Cc3ncc[nH]3)CC2)no1 | 19.7
